Consider three molecules from patent US5106762A, “Ligand-label conjugates which contain polyoxoanions of sulfur or phosphorus” (Georgetown University, priority 1990, dated 1992).

Data set [1] concerns murine monoclonal anti-DNP antibody #51. The data set is described as follows: Binding of DNP-conjugates to anti-DNP-Sepharose. The conditions noted are these: for binding to anti-DNP-Sepharose after extensive washing (FIG. 3): 3:1 molar ratio of conjugate to immobilized antibody; for amount specifically bound to the antigen binding sites of immobilized antibody #51: after subtraction of non-specific binding to non-immune IgG-Sepharose; for DNP-Conjugate Bound / Ratio of Bound DNP-Conjugate to Immobilized IgG: binding to anti-DNP IgG1; for DNP-Conjugate Bound: applied conjugate to immobilized IgG 3.0 moles/moles, insulin conjugates 125I-labeled; for Ratio of Bound DNP-Conjugate to Immobilized IgG: applied ratio 3.0. On the procedure: (§1) Fluorescence intensity was measured on a SLM 8000 fluorimeter at 490 nm excitation and 519 nm emission. Individual fluorescence standard curves with known concentrations of the different DNP-fluorescein conjugates were used to calculate the amounts of DNP-conjugates from fluorescence units. Antibodies were coupled to tresyl chloride-activated Sepharose 4B (Sigma) at a concentration of 200 ug antibody/100 mg gel according to the manufacturer's recommendation. The amount of immobilized antibody was determined using a Coomassie blue assay as described in Ahmad et al, Anal. Biochem., vol. 148, pp 533-541 (1985). Peptide and protein determinations in fluid-phase were performed by UV absorbance at 280 nm, by the bicinchoninic acid method (Smith et al, Anal. Biochem., vol. 150, pp. 76-85 (1985)) using the Pierce BCA Protein Assay Reagent (Pierce), and by the Folin-Ciocalteau method (Lowry et al, J. Biol. chem., vol. 193, pp. 265 (1951)). The A-chain of bovine insulin (oxidized to the S-sulfonate form) (Sigma), the DNP-Ins conjugate, and the DNP-Ins-Flu conjugate were radiolabeled with Na^125 I (Amersham, Arlington Heights, IL) using immobilized chloramine-T (Iodo-Beads; Pierce, Rockford, IL) (Petrella et al, J. Immunol. Methods, vol. 104, pp. 159-172 (1987)).
(§2) Specific binding of the DNP-conjugates was determined with the murine monoclonal anti-DNP antibody #51 (Stanley et al, J. Immunol. Methods, vol. 64, pp. 119-132 (1983) and Steward et al, J. Immunol. Methods, vol. 78, pp. 173-190 (1985)) coupled to tresyl chloride-activated Sepharose 4B (anti-DNP-Sepharose) The monoclonal IgG1 antibody #51 (purified from ascites) was kindly provided by Dr. M. W. Steward (Dept. of Medical Microbiology, London School of Hygiene and Tropical Medicine, London, U.K.). Nonspecific binding was measured with Sepharose 4B-immobilized non-immune mouse IgG purified from mouse serum (Jackson ImmunoResearch Laboratories, West Grove, PA) (IgG-Sepharose). After removal of buffer by vacuum filtration on a scintered glass funnel, 50 mg aliquots of Sepharose 4B-antibody matrices were transferred to plastic conical vials and incubated with ^125 I-labeled DNP-insulin A-chain-fluorescein conjugate (1.6×10^6 cpm/nmole), or ^125 I-labeled DNP-insulin A-chain conjugate without attached fluorescein residues (3.3×10^6 cpm/nmole), or non-radiolabeled DNP-Lys-Fl at a 3 to 1 molar ratio of DNP-derivative to immobilized IgG in 10 mM phosphate/150 mM NaCl, pH 7.6, overnight at 4° C. on a rocking platform. Unbound conjugate was recovered by poking a hole in the bottom of the plastic vial with a 30 gauge needle, loading the vial on the top of a glass test tube, and centrifuging. Subsequent washing steps were performed with 150 μl of 10 mM phosphate/150 mM NaCl/0.1% (v/v) Triton X-100, pH 7.6. Aliquots of the solutions collected in the bottom of the test tubes after centrifugation were assayed for radioactivity or fluorescence.

For a further data set, the system named is non-immune mouse IgG. In words: Nonspecific binding of DNP-conjugates to IgG-Sepharose. The conditions noted are these: for DNP-Conjugate Bound / Ratio of Bound DNP-Conjugate to Immobilized IgG: binding to non-immune IgG; for DNP-Conjugate Bound: applied conjugate to immobilized IgG 3.0 moles/moles; for Ratio of Bound DNP-Conjugate to Immobilized IgG: applied ratio 3.0. On the procedure: as §1, §2

Data set [2] has as its system immobilized monoclonal anti-DNP antibody #51. The data set is described as follows: Displacement of DNP-conjugates from immobilized monoclonal anti-DNP antibody by DNP-lysine. The conditions noted are these: for Displacement of Antibody-Bound DNP-Conjugate by DNP-Lysine: ± S.D., free DNP-lysine to antibody-bound conjugate 2.0 (DNP-Lys-Fl) or 3.4 (DNP-Ins-Fl, DNP-Ins) mole/mole. Format: binding, murine. On the procedure: as §2
Aliquots of anti-DNP-Sepharose (50 mg) were incubated with ^125 I-labeled DNP-insulin A-chain, or ^125 I-labeled DNP-insulin A-chain-fluorescein, or DNP-lysine-fluorescein and washed with 10 mM phosphate/150 mM NaCl/0.1% (v/v) Triton X-100, pH 7.6 , as described above in Specific and Nonspecific Binding of DNP-Conjugates. […] Displacement was determined by assaying aliquots of the solutions collected in the bottom of the test tubes after centrifugation for radioactivity or fluorescence.

A short description of data set [3]: Determination of fluorescence lifetime (variable frequency phase fluorimeter). Type of data set: physicochemical. On the procedure:
The fluorescence lifetime of the DNP-fluorescein conjugates was measured on an ISS Greg-200 variable frequency phase fluorimeter as described previously (Lakowicz et al, Biophys. J., vol. 46, pp. 463-477 (1984) and Gratton et al, Biophys. J., vol. 46, pp. 479-486 (1984)) using 1-chloro-bis-(phenylethynyl)anthracene (Aldrich) in ethanol (3.791 ns) as a reference (Thompson et al. Anal. Chem., vol. 60, pp. 670-674 (1988)). The resulting phase and modulation data for DNP-Ins-FL were fit to one, two, and three emissive components using a Simplex algorithm supplied by ISS. […] When the data were fit to a three component model, the third component was weak (<5%), poorly defined (1.1±3.2 ns), and gave no improvement in X^2. Therefore, a third component appears to be unnecessary to fit the data. Since the DNP moiety has the ability to quench the fluorescein emission, the data are best explained by two fluorescein residues being remote from and unquenched by the DNP group with the third fluorescein residue being closer and subject to quenching. In accord with this explanation is the observation that the fluorescence of the DNP-lysine-fluorescein derivative was substantially quenched as shown by its reduced quantum efficiency and subanosecond fluorescence lifetime.

For `O=C(O)c1cc(NC(=S)N[C@@H](CCCCNc2ccc([N+](=O)[O-])cc2[N+](=O)[O-])C(=O)O)ccc1-c1c2ccc(=O)cc-2oc2cc(O)ccc12` [DNP-Lys-Fl, DNP-lysine-fluorescein, reference compound], in data set [1], the “binding to anti-DNP-Sepharose after extensive washing (FIG. 3)” value amounted to 62.7%, the “amount specifically bound to the antigen binding sites of immobilized antibody #51” value is given as 0.4 mole conjugate/mole antibody, the “DNP-Conjugate Bound” value was determined as 0.37 ± 0.02 nmol and the “Ratio of Bound DNP-Conjugate to Immobilized IgG” value (“Ratio of Bound DNP-Conjugate” below) came to 1.9 moles/moles. Also, the “fold difference in binding of DNP-Lys-Fl versus DNP-Ins-Fl to anti-DNP-Sepharose” value in data set [1] (3:1 molar ratio, after extensive washing) is recorded as 1.6 fold. Further, in the data set with non-immune mouse IgG, the “non-specific binding of DNP-Lys-Fl to immobilized non-immune IgG relative to DNP-Ins-Fl” value is on record as “three-fold higher”, the “DNP-Conjugate Bound” value came out at 1.27 ± 0.07 nmol and the “Ratio of Bound DNP-Conjugate” value is reported as 1.5 moles/moles. In data set [2], the “Displacement of Antibody-Bound DNP-Conjugate by DNP-Lysine” value was 0.45 ± 0.14 pmol. The fluorescence lifetime result in data set [3] (in words) is listed as “subanosecond”.

As to dinitrophenyl-insulin A-chain [DNP-Ins], in data set [1], the “DNP-Conjugate Bound” value came out at 0.11 ± 0.01 nmol and the “Ratio of Bound DNP-Conjugate” value was 1.2 moles/moles. Also, the “Displacement of Antibody-Bound DNP-Conjugate by DNP-Lysine” value in data set [2] is 1.56 ± 0.01 pmol.

“DNP-insulin A-chain-fluorescein [DNP-Ins-Fl]”: in data set [1], the “binding to anti-DNP-Sepharose after extensive washing (FIG. 3)” value is 38.8%, the “amount specifically bound to the antigen binding sites of immobilized antibody #51” value is on record as 0.7 mole conjugate/mole antibody, the “DNP-Conjugate Bound” value turned out to be 0.11 ± 0.03 nmol and the “Ratio of Bound DNP-Conjugate” value is 1.2 moles/moles. Moreover, in the data set on non-immune mouse IgG, the “DNP-Conjugate Bound” value is 0.44 ± 0.16 nmol and the “Ratio of Bound DNP-Conjugate” value was 0.5 moles/moles. Further, the “non-specific binding of DNP-Ins-Fl relative to DNP-Lys-Fl” value in the data set on non-immune mouse IgG (see Table II) is listed as “about one-third”. For the same molecule, in data set [2], the “efficiency of displacement by DNP-lysine relative to DNP-Ins” value was “two-fold more efficient” and the “Displacement of Antibody-Bound DNP-Conjugate by DNP-Lysine” value turned out to be 3.20 ± 0.70 pmol. Moreover, the “efficiency of displacement by DNP-lysine relative to DNP-Lys-Fl” value in data set [2] (under comparable conditions) was “much more efficient”. For the same molecule, in data set [3] (two component fit), the “fluorescence lifetime, shorter lifetime component” value came to 2.068±0.150 ns; the “fraction of first lifetime component” value worked out at 64±7%; the “fraction of shorter lifetime component” value is recorded as 36%. Besides, the “fluorescence lifetime, first component” value in data set [3] (two component fit, X^2 =1.26) was 4.091±0.177 ns.
